# Test results as given in US20070129252A1, “2-Halo-6-alkylphenyl-substituted spirocyclic tetramic acid derivatives” (BAYER CROPSCIENCE AKTIENGESELLSCHAFT, priority 2003, published 2007).
# Tests used:
# Format in all cases: in vivo
# [1] = system: Myzus persicae; assay: Myzus test (dip treatment); conditions: cabbage leaves
# Protocol: Myzus Test (Dip Treatment)
# (§1) To produce a suitable preparation of active compound, 1 part by weight of active compound is mixed with the stated amounts of solvent and emulsifier, and the concentrate is diluted with emulsifier-containing water to the desired concentration.
# Cabbage leaves (Brassica oleracea), which are heavily infested by the green peach aphid Myzus persicae), are treated by being dipped into the preparation of active compound of the desired concentration.
# (§2) After the desired period of time, the kill in % is determined. 100% means that all aphids have been killed; 0% means that none of the aphids have been killed.
# [2] = system: Tetranychus urticae; assay: Tetranychus test (OP-resistant/dip treatment); conditions: dip treatment
# Protocol: Tetranychus Test (OP-Resistant/Dip Treatment)
# as §1
# Bean plants (Phaseolus vulgaris), which are heavily infested by all stages of the greenhouse red spider mite (Tetranychus urticae), are dipped into a preparation of active compound of the desired concentration.
# (§3) After the desired period of time, the activity in % is determined. 100% means that all spider mites have been killed; 0% means that none of the spider mites have been killed.
# [3] = system: Aphis gossypii; assay: Aphis gossypii test; conditions: 500 ppm; dip treatment; cotton leaves
# Protocol: as §1
# Cotton leaves (Gossypium hirsutum), which are heavily infested by the cotton aphid (Aphis gossypii), are treated by being dipped into the preparation of active compound of the desired concentration.
# as §2
# [4] = system: Phaedon cochleariae; assay: Phaedon larvae test (dip treatment); conditions: 500 ppm, cabbage leaves
# Protocol: Phaedon Larvae Test (Dip Treatment) [[[…]]] To produce a suitable preparation of active compound, 1 part by weight of active compound is mixed with the stated amounts of solvent and emulsifier, and the concentrate is diluted with emulsifier-containing water to the desired concentration. Cabbage leaves (Brassica oleracea) are treated by being dipped into the preparation of active compound of the desired concentration and are populated with larvae of the mustard beetle (Phaedon cochleariae) while the leaves are still moist.
# [5] = system: Echinochloa; assay: Post-emergence test (Example J); conditions: greenhouse, 60 g of a.i./ha, after three weeks
# Protocol: (§4) To produce a suitable preparation of active compound, 1 part by weight of active compound is mixed with the stated amount of solvent, the stated amount of emulsifier is added and the concentrate is diluted with water to the desired concentration.
# (§5) Test plants of a height of 5-15 cm are sprayed with the preparation of active compound such that the particular amounts of active compound desired are applied per unit area. The concentration of the spray liquor is chosen such that the particular amounts of active compound desired are applied in 1000 l of water/ha.
# (§6) After three weeks, the degree of damage in the plants is rated in % damage in comparison to the development of the untreated control.
# (§7) 0%=no effect (like untreated control)
# [6] = system: Lolium; assay: Post-emergence test (Example J); conditions: greenhouse, 60 g of a.i./ha, after three weeks
# Protocol: as §4, §5, §6, §7
# [7] = system: sugarbeets; assay: Post-emergence test (Example J); conditions: greenhouse, 60 g of a.i./ha, after three weeks
# Protocol: as §4, §5, §6, §7
# [8] = system: Echinochloa; assay: Pre-emergence test (Example K); conditions: greenhouse, 30 g of a.i./ha, after three weeks
# Protocol: as §4
# (§8) Seeds of the test plants are sown in normal soil. After about 24 hours, the soil is sprayed with the preparation of active compound such that the particular amounts of active compound desired are applied per unit area. The concentration of the spray liquor is chosen such that the particular amounts of active compound desired are applied in 1000 l of water/ha.
# (§9) After three weeks, the degree of damage to the plants is rated in % damage in comparison to the development of the untreated control.
# as §7
# [9] = system: Lolium; assay: Pre-emergence test (Example K); conditions: greenhouse, 30 g of a.i./ha, after three weeks
# Protocol: as §4, §8, §9, §7
# [10] = system: Setaria; assay: Pre-emergence test (Example K); conditions: greenhouse, 30 g of a.i./ha, after three weeks
# Protocol: as §4, §8, §9, §7
# [11] = system: sugarbeets; assay: Pre-emergence test (Example K); conditions: greenhouse, 30 g of a.i./ha, after three weeks
# Protocol: as §4, §8, §9, §7
# [12] = system: summer barley; assay: Herbicidal post-emergence action, vessel trials with cereals in the greenhouse, use of safeners (Example N); conditions: without safener
# Protocol: (§10) Herbicidal Post-Emergence Action
# (§11) Seeds of monocotyledonous and dicotyledonous weed and crop plants are placed into sandy loam in wood fibre pots or in plastic pots, covered with soil and cultivated in a greenhouse, during the vegetation period also outdoors outside of the greenhouse, under good growth conditions. 2-3 weeks after sowing, the test plants are treated at the one- to three-leaf stage. The test compounds, formulated as wettable powders (WP) or emulsifiable concentrates (EC) are, in various dosages with a water application rate of 300 l/ha (converted), with wetting agent (0.2 to 0.3%) added, sprayed onto the plants and the surface of the soil. 3-4 weeks after the treatment of the test plants, the effect of the preparations is rated visually in comparison to untreated controls (herbicidal effect in percent (%): 100% effect=the plants have died, 0% effect=like control plants).
# (§12) If it is additionally to be tested as to whether safeners can improve the plant compatibility of test substances in the case of crop plants, the following options are used for applying the safener: • seeds of the crop plants are, before sowing, dressed with the safener substance (the amount of safener is stated in percent, based on the weight of the seed) • before the application of the test substances, the crop plants are sprayed with the safener at a certain application rate per hectare (usually 1 day before the application of the test substances) • the safener is applied together with the test substance as a tank mix (the amount of safener is stated in g/ha or as a ratio, based on the herbicide).
# (§13) By comparing the effect of the test substances on crop plants without or with safener treatment, it is possible to assess the effect of the safener substance.
# (§14) Vessel Trials with Cereals in the Greenhouse
# (§15) Mefenpyr applied 1 day prior to the application of herbicide
# [13] = system: summer wheat; assay: as above; conditions: without safener
# Protocol: as §10, §11, §12, §13, §14, §15
# [14] = system: Meloidogyne incognita; assay: Meloidogyne test; conditions: 20 ppm; formation of galls on lettuce roots
# Protocol: To produce a suitable preparation of active compound, 1 part by weight of active compound is mixed with the stated amounts of solvent and emulsifier, and the concentrate is diluted with water to the desired concentration.
# Vessels are filled with sand, solution of active compound, Meloidogyne incognita egg/larvae suspension and lettuce seeds. The lettuce seeds germinate and the plants develop. On the roots, galls develop.
# After the desired period of time, the nematicidal action is determined in % by the formation of galls. 100% means that no galls have been found; 0% means that the number of galls on the treated plants corresponds to that of the untreated control.
# [15] = system: Myzus persicae; assay: Myzus test (spray treatment); conditions: 100 g/ha, Chinese cabbage discs
# Protocol: Myzus Test (Spray Treatment)
# as §1
# Discs of Chinese cabbage (Brassica pekinensis), which are infested by all stages of the green peach aphid (Myzus persicae), are sprayed with a preparation of active compound of the desired concentration.
# After the desired period of time, the effect in % is determined. 100% means that all aphids have been killed; 0% means that none of the aphids have been killed.
# [16] = system: Avena sativa; assay: Herbicidal post-emergence action (Example M); conditions: greenhouse, 320 g of a.i./ha, about 3 weeks
# Protocol: as §10
# (§16) Seeds of monocotyledonous and dicotyledonous weed and crop plants are placed into sandy loam in wood fibre pots, covered with soil and cultivated in a greenhouse under good growth conditions. 2-3 weeks after sowing, the test plants are treated at the one-leaf stage. The test compounds, formulated as wettable powders (WP), are, in various dosages with a water application rate of 600 l/ha (converted), with 0.2% of wetting agent added, sprayed onto the green parts of the plants. After the test plants were kept in the greenhouse under optimum growth conditions for about 3 weeks, the effect of the preparations is rated visually in comparison to untreated controls (herbicidal effect in percent (%): 100% effect=the plants have died, 0% effect=like control plants).
# [17] = system: Lolium; assay: Herbicidal post-emergence action (Example M); conditions: greenhouse, 320 g of a.i./ha, about 3 weeks
# Protocol: as §10, §16
# [18] = system: Setaria; assay: Herbicidal post-emergence action (Example M); conditions: greenhouse, 320 g of a.i./ha, about 3 weeks
# Protocol: as §10, §16
# [19] = system: Avena sativa; assay: Herbicidal pre-emergence action (Example L); conditions: greenhouse, 320 g of a.i./ha, 3 weeks
# Description: (§17) Herbicidal Pre-Emergence Action
# (§18) Seeds of monocotyledonous and dicotyledonous weed and crop plants are placed into sandy loam in wood fibre pots and covered with soil. The test compounds, formulated in the form of wettable powders (WP), are then, in various dosages as aqueous suspension with a water application rate of 600 l/ha (converted), with 0.2% of wetting agent added, applied to the surface of the covering soil.
# (§19) After the treatment, the pots are placed in a greenhouse and kept under good growth conditions for the test plants. The visual assessment of the emergence damage on the test plants is carried out after a trial period of 3 weeks by comparison with untreated controls (herbicidal effect in percent (%): 100% effect=the plants have died, 0% effect=like control plants).
# [20] = system: Lolium; assay: Herbicidal pre-emergence action (Example L); conditions: greenhouse, 320 g of a.i./ha, 3 weeks
# Description: as §17, §18, §19
# [21] = system: Setaria; assay: Herbicidal pre-emergence action (Example L); conditions: greenhouse, 320 g of a.i./ha, 3 weeks
# Description: as §17, §18, §19
# [22] = system: Sinapis; assay: Herbicidal pre-emergence action (Example L); conditions: greenhouse, 320 g of a.i./ha, 3 weeks
# Description: as §17, §18, §19
# [23] = system: Stellaria; assay: Herbicidal pre-emergence action (Example L); conditions: greenhouse, 320 g of a.i./ha, 3 weeks
# Description: as §17, §18, §19
# [24] = system: Phaedon cochleariae; assay: Phaedon test (spray treatment); conditions: 100 g/ha, Chinese cabbage discs
# Protocol: Phaedon Test (Spray Treatment) [table] To produce a suitable preparation of active compound, 1 part by weight of active compound is mixed with the stated amounts of solvents and emulsifier, and the concentrate is diluted with emulsifier-containing water to the desired concentration. Discs of Chinese cabbage (Brassica pekinensis) are sprayed with a preparation of active compound of the desired concentration and, after they have dried, populated with larvae of the mustard beetle (Phaedon cochleariae).
# [25] = system: Tetranychus urticae; assay: Tetranychus test (OP-resistant/spray treatment); conditions: 100 g/ha; spray treatment; bean leaf discs
# Protocol: Tetranychus Test (OP-Resistant/Spray Treatment)
# To produce a suitable preparation of active compound, 1 part by weight of active compound is mixed with the stated amounts of solvents and emulsifier, and the concentrate is diluted with emulsifier-containing water to the desired concentration.
# Discs of bean leaves (Phaseolus vulgaris) which are infested by all stages of the greenhouse red spider mite (Tetranychus urticae) are sprayed with a preparation of active compound of the desired concentration.
# as §3
# [26] = system: Sinapis; assay: Herbicidal post-emergence action (Example M); conditions: greenhouse, 320 g of a.i./ha, about 3 weeks
# Protocol: as §10, §16
# [27] = system: Amaranthus; assay: Herbicidal pre-emergence action (Example L); conditions: greenhouse, 320 g of a.i./ha, 3 weeks
# Description: as §17, §18, §19
smiles,measurement,setting,value
"CCc1cc(C)cc(Cl)c1C1=C(O)C2(CCC(OC)CC2)NC1=O (single isomer, unassigned) [Example I-a-4]",Kill rate in % after 6d,[1]; 4 ppm,95%
same,Kill rate in % after 7d,"[2]; 100 ppm, bean plants (Table H)",99%
same,Kill rate in % after 6d,[3],80%
same,Kill rate in % after 7d,[4],100%
same,"% damage, Echinochloa",[5],100%
same,"% damage, Lolium",[6],100%
same,"% damage, sugarbeets",[7],0%
same,"% damage, Echinochloa",[8],80%
same,"% damage, Lolium",[9],100%
same,"% damage, Setaria",[10],100%
same,"% damage, sugarbeets",[11],0%
same,summer barley observed (%),[12]; 12.5 g of a.i./ha,10%
same,summer barley observed (%),[12]; 25 g of a.i./ha,30%
same,summer barley observed (%),[12]; 50 g of a.i./ha,97%
same,summer wheat observed (%),[13]; 12.5 g of a.i./ha,50%
same,summer wheat observed (%),[13]; 25 g of a.i./ha,98%
CCc1cc(C)cc(Br)c1C1=C(O)C2(CCOCC2)NC1=O [Example I-a-1],Kill rate in % after 6d,[1]; 100 ppm,75%
same,Effect in % after 14d,[14],80%
same,Kill rate in % after 5d,[15],100%
same,"herbicidal effect in percent, Avena sativa",[16],100%
same,"herbicidal effect in percent, Lolium",[17],100%
same,"herbicidal effect in percent, Setaria",[18],80%
same,"herbicidal effect in percent, Avena sativa",[19],70%
same,"herbicidal effect in percent, Lolium",[20],80%
same,"herbicidal effect in percent, Setaria",[21],90%
same,"herbicidal effect in percent, Sinapis",[22],70%
same,"herbicidal effect in percent, Stellaria",[23],100%
"CCc1cc(C)cc(Br)c1C1=C(O)C2(CCC(OC)CC2)NC1=O (single isomer, unassigned) [Example I-a-3]",Kill rate in % after 7d,"[2]; 4 ppm, bean plants (Table B)",50%
same,Kill rate in % after 5d,[15],100%
same,Kill rate in % after 7d,[24],100%
same,Kill rate in % after 5d,[25],90%
same,"herbicidal effect in percent, Avena sativa",[16],100%
same,"herbicidal effect in percent, Lolium",[17],100%
same,"herbicidal effect in percent, Setaria",[18],100%
same,"herbicidal effect in percent, Sinapis",[26],80%
same,"herbicidal effect in percent, Amaranthus",[27],80%
same,"herbicidal effect in percent, Lolium",[20],80%
same,"herbicidal effect in percent, Setaria",[21],100%
same,summer barley observed (%),[12]; 25 g of a.i./ha,20%
same,summer barley observed (%),[12]; 50 g of a.i./ha,90%
same,summer barley observed (%),[12]; 100 g of a.i./ha,95%
same,summer wheat observed (%),[13]; 25 g of a.i./ha,60%
